According to patent publication US10857105B2, “Compounds and compositions for intracellular delivery of therapeutic agents” (ModernaTX, Inc., priority 2017, dated 2020):

How the values were obtained:
IL-6, IP-10 = assay: Cytokine induction (IL-6, IP-10) in mice 6 hours after intravenous administration; assay type: in vivo; set-up: unit not given here; details: intravenous 0.5 mpk
Excerpt: The introduction of foreign material into a mammalian body induces an innate immune response that promotes cytokine production. Such immune responses to, for example, nanoparticle compositions including therapeutic and/or prophylactics, are undesirable. The induction of certain cytokines is thus measured to evaluate the […] of nanoparticle compositions. The concentrations of various cytokines in mice upon intravenous administration of nanoparticle compositions presented in Table 1A at a dosage of 0.5 mpk was measured at 6 hours. The standard MC3 formulation and a PBS control were also tested. As is evident in Table 7, IL-6 induction was highest for compositions including Compounds 1, 3, 9, 19, and 26, while IP-10 induction was highest for compositions including Compounds 3, 4, 7, 20, and 26. IL-6 induction was lowest for compositions including Compounds 4, 11, 12, and 28. IP-10 induction was lowest for compositions including Compounds 10, 11, 12, 13, 15, 17, and 18.

[1] = Encapsulation efficiency of RNA in nanoparticle compositions (RIBOGREEN assay); assay type: physicochemical; details: Table 1A; lipid:DSPC:cholesterol:PEG-DMG 50:10:38.5:1.5 mol %
How it was run: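 Lipid nanoparticles (ionisable lipid:DSPC:cholesterol:PEG-DMG 50:10:38.5:1.5 mol %) carrying N1-methylpseudouridine luciferase or hEPO mRNA diluted to about 5 μg/mL in TE, pH 7.5, with or without 2% Triton X-100, 15 min at 37° C. RiboGreen fluorescence (ex ~480, em ~520 nm) blank-subtracted; free RNA = intact/disrupted signal.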

[2] = Particle size and polydispersity index of nanoparticle compositions (Zetasizer Nano ZS); assay type: physicochemical; details: Table 1A; lipid:DSPC:cholesterol:PEG-DMG 50:10:38.5:1.5 mol %
How it was run: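 Size and PDI measured by Zetasizer Nano ZS in 1×PBS (zeta potential in 15 mM PBS). Lipid nanoparticles contained test ionizable lipid:DSPC:cholesterol:PEG-DMG at 50:10:38.5:1.5 mol % with N1-methyl-pseudouridine mRNA encoding luciferase or hEPO.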

modified luciferase = assay: Luciferase expression in liver, lung, spleen and femur 6 hours after intravenous administration to mice; assay type: in vivo; details: 6 hours after intravenous 0.5 mpk, mice
How it was run: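 Nanoparticle formulations of the modified luciferase were given intravenously to mice (n=3) at 0.5 mpk. Bioluminescence was measured after 6 hours as total light flux. Standard MC3 formulation and PBS run as controls.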

CCCCCCCCCCCCCCN(CCO)CCCCCCCC(=O)OC(CCCCCCCC)CCCCCCCC [Compound 2, Heptadecan-9-yl 8-((2-hydroxyethyl)(tetradecyl)amino)octanoate]
Cytokine induction, IL-6 (IL-6, IP-10): 70.95 | Cytokine induction, IP-10 (IL-6, IP-10): 468.86 | EE [1]: 93.88% | Size [2]: 83.9 nm | Total Flux, Femur (modified luciferase): 3.86E+06 | Total Flux, Liver (modified luciferase): 4.87E+09 | Total Flux, Lung (modified luciferase): 2.52E+07 | Total Flux, Spleen (modified luciferase): 5.77E+07

CCCCCCCCC(CCCCCCCC)OC(=O)CCCCCCCN(CCO)CCCCCCCC [Compound 4, Heptadecan-9-yl 8-((2-hydroxyethyl)(octyl)amino)octanoate]
Cytokine induction, IL-6 (IL-6, IP-10): 13.1375 | Cytokine induction, IP-10 (IL-6, IP-10): 2253.09 | EE [1]: 95.10% | Size [2]: 120.5 nm | Total Flux, Liver (modified luciferase): 5.26E+09 | Total Flux, Lung (modified luciferase): 6.22E+07 | Total Flux, Spleen (modified luciferase): 4.09E+08

CCCCCCCCCOC(=O)CCCCCCCN(CCCCCCCC(=O)OC(CCCCCCCC)CCCCCCCC)CCOC(C)=O [Compound 9, Heptadecan-9-yl 8-((2-acetoxyethyl)(8-(nonyloxy)-8-oxooctyl)amino) octanoate]
Cytokine induction, IL-6 (IL-6, IP-10): 317.45 | Cytokine induction, IP-10 (IL-6, IP-10): 366.53 | EE [1]: 75.7% | Size [2]: 68.5 nm | Total Flux, Femur (modified luciferase): 2.57E+04 | Total Flux, Liver (modified luciferase): 4.30E+05 | Total Flux, Lung (modified luciferase): 2.56E+04 | Total Flux, Spleen (modified luciferase): 5.51E+04

CCCCCCCCCOC(=O)CCCCCCCN(CCCCCCCC(=O)OC(CCCCCCCC)CCCCCCCC)CC(C)O (stereo not shown) [Compound 10, Heptadecan-9-yl 8-((2-hydroxypropyl)(8-(nonyloxy)-8-oxooctyl)amino) octanoate]
Cytokine induction, IL-6 (IL-6, IP-10): 88.81 | Cytokine induction, IP-10 (IL-6, IP-10): 138.16 | EE [1]: 89.60% | Size [2]: 102.9 nm | Total Flux, Femur (modified luciferase): 5.09E+05 | Total Flux, Liver (modified luciferase): 3.22E+08 | Total Flux, Lung (modified luciferase): 8.85E+05 | Total Flux, Spleen (modified luciferase): 8.17E+06

CCCCCCCCCOC(=O)CCCCCCCN(CCCCCCCC(=O)OC(CCCCCCCC)CCCCCCCC)C[C@@H](C)O [Compound 11, Heptadecan-9-yl (R)-8-((2-hydroxypropyl)(8-(nonyloxy)-8-oxooctyl)amino)octanoate]
Cytokine induction, IL-6 (IL-6, IP-10): 0.14 | Cytokine induction, IP-10 (IL-6, IP-10): 44.84 | EE [1]: 92.47% | Size [2]: 129.6 nm | Total Flux, Liver (modified luciferase): 8.03E+08 | Total Flux, Lung (modified luciferase): 1.35E+07 | Total Flux, Spleen (modified luciferase): 1.04E+08

CCCCCCCCCOC(=O)CCCCCCCN(CCCCCCCC(=O)OC(CCCCCCCC)CCCCCCCC)C[C@H](C)O [Compound 12, Heptadecan-9-yl (S)-8-((2-hydroxypropyl)(8-(nonyloxy)-8-oxooctyl)amino)octanoate]
Cytokine induction, IL-6 (IL-6, IP-10): 3.88 | Cytokine induction, IP-10 (IL-6, IP-10): 32.03 | EE [1]: 92.44% | Size [2]: 116.7 nm | Total Flux, Liver (modified luciferase): 6.84E+08 | Total Flux, Lung (modified luciferase): 7.45E+06 | Total Flux, Spleen (modified luciferase): 6.82E+07

CCCCCCCCCOC(=O)CCCCCCCN(CCCCCCCC(=O)OC(CCCCCCCC)CCCCCCCC)CC(O)CC (stereo not shown) [Compound 13, Heptadecan-9-yl 8-((2-hydroxybutyl)(8-(nonyloxy)-8-oxooctyl)amino) octanoate]
Cytokine induction, IL-6 (IL-6, IP-10): 29.07 | Cytokine induction, IP-10 (IL-6, IP-10): 126.29 | EE [1]: 92.28% | Size [2]: 79.4 nm | Total Flux, Femur (modified luciferase): 1.35E+05 | Total Flux, Liver (modified luciferase): 2.25E+07 | Total Flux, Lung (modified luciferase): 2.21E+05 | Total Flux, Spleen (modified luciferase): 7.09E+05

CCCCCCCCCOC(=O)CCCCCCCN(CCCCCCCC(=O)OC(CCCCCCCC)CCCCCCCC)CCOC [Compound 15, Heptadecan-9-yl 8-((2-methoxyethyl)(8-(nonyloxy)-8-oxooctyl)amino)octanoate]
Cytokine induction, IL-6 (IL-6, IP-10): 64.65 | Cytokine induction, IP-10 (IL-6, IP-10): 184.30 | EE [1]: 92.47% | Size [2]: 111.1 nm | Total Flux, Femur (modified luciferase): 5.93E+04 | Total Flux, Liver (modified luciferase): 6.23E+06 | Total Flux, Lung (modified luciferase): 6.41E+04 | Total Flux, Spleen (modified luciferase): 9.01E+05

CCCCCCCCCOC(=O)CCCCCCCN(CCCCCCCC(=O)OC(CCCCCCCC)CCCCCCCC)CCCOC [Compound 16, Heptadecan-9-yl 8-((3-methoxypropyl)(8-(nonyloxy)-8-oxooctyl)amino) octanoate]
Cytokine induction, IL-6 (IL-6, IP-10): 32.01 | Cytokine induction, IP-10 (IL-6, IP-10): 206.75 | EE [1]: 91.32% | Size [2]: 119.0 nm | Total Flux, Femur (modified luciferase): 2.55E+05 | Total Flux, Liver (modified luciferase): 3.17E+07 | Total Flux, Lung (modified luciferase): 4.18E+05 | Total Flux, Spleen (modified luciferase): 5.43E+06

CCCCCCCCCOC(=O)CCCCCCCN(CCCCCCCC(=O)OC(CCCCCCCC)CCCCCCCC)CCOCCN(C)C [Compound 17, Heptadecan-9-yl 8-((2-(2-(dimethylamino)ethoxy)ethyl) (8-(nonyloxy)-8-oxooctyl)amino)octanoate]
Cytokine induction, IL-6 (IL-6, IP-10): 138.43 | Cytokine induction, IP-10 (IL-6, IP-10): 156.41 | EE [1]: 91.84% | Size [2]: 85.2 nm | Total Flux, Femur (modified luciferase): 9.55E+04 | Total Flux, Liver (modified luciferase): 5.52E+05 | Total Flux, Lung (modified luciferase): 9.95E+04 | Total Flux, Spleen (modified luciferase): 5.58E+06

CCCCCCCCCOC(=O)CCCCCCCN(CCCCCCCC(=O)OC(CCCCCCCC)CCCCCCCC)C1CCCCC1O (stereo not shown) [Compound 22, Heptadecan-9-yl 8-((2-hydroxycyclohexyl)(8-(nonyloxy)-8-oxooctyl)amino)octanoate]
Cytokine induction, IL-6 (IL-6, IP-10): 90.54 | Cytokine induction, IP-10 (IL-6, IP-10): 976.50 | EE [1]: 96.00% | Size [2]: 80.2 nm | Total Flux, Femur (modified luciferase): 1.16E+05 | Total Flux, Liver (modified luciferase): 4.00E+07 | Total Flux, Lung (modified luciferase): 4.73E+05 | Total Flux, Spleen (modified luciferase): 1.57E+06

CCCCCCCC/C=C\COC(=O)CCCCCN(CCO)CCCCCC(=O)OC/C=C\CCCCCCCC [Compound 140, Di((Z)-undec-2-en-1-yl) 6,6′-((2-hydroxyethyl)azanediyl)dihexanoate]
Cytokine induction, IL-6 (IL-6, IP-10): 282.82 | Cytokine induction, IP-10 (IL-6, IP-10): 187.83 | EE [1]: 89.2% | Size [2]: 120.3 nm | Total Flux, Femur (modified luciferase): 3.26E+04 | Total Flux, Liver (modified luciferase): 4.21E+05 | Total Flux, Lung (modified luciferase): 2.14E+04 | Total Flux, Spleen (modified luciferase): 2.22E+05

CCCCCCCCCCCOC(=O)CCCCCN(CCO)CCCCCC(=O)OCCCCCCCCCCC [Compound 141, Diundecyl 6,6′-((2-hydroxyethyl)azanediyl)dihexanoate]
Cytokine induction, IL-6 (IL-6, IP-10): 327.15 | Cytokine induction, IP-10 (IL-6, IP-10): 1072.04 | EE [1]: 94.1% | Size [2]: 91.3 nm | Total Flux, Femur (modified luciferase): 2.86E+04 | Total Flux, Liver (modified luciferase): 1.59E+05 | Total Flux, Lung (modified luciferase): 3.85E+04 | Total Flux, Spleen (modified luciferase): 6.29E+04

CCCCCCCCCOC(=O)CCCCCCCN(CCO)CCCCCCCC(=O)N(CCCCCCCC)CCCCCCCC [Compound 144, Nonyl 8-((8-(dioctylamino)-8-oxooctyl)(2-hydroxyethyl)amino)octanoate]
Cytokine induction, IL-6 (IL-6, IP-10): 319.46 | Cytokine induction, IP-10 (IL-6, IP-10): 4220.55 | EE [1]: 90.3% | Size [2]: 135.9 nm | Total Flux, Femur (modified luciferase): 2.44E+06 | Total Flux, Liver (modified luciferase): 3.75E+08 | Total Flux, Lung (modified luciferase): 4.81E+06 | Total Flux, Spleen (modified luciferase): 5.11E+07
